Reference: patent US5093342A, “Use of omeprazole as an antimicrobial agent” (priority 1989, dated 1992)
Values after ≈ are worked out from the molar mass of the structure shown.

Tested on: Campylobacter pylori 8005
Experiment: in vitro antimicrobial activity, agar plate dilution method (MIC)
Format: cell-based
Conditions: Helicobacter pylori, 48 h, Brucella Agar containing 5% horse lysed blood, 37° C., 10% carbon dioxide gas, 2 days, inoculum 10^7 cells/ml, read-out: minimal inhibitory concentration (MIC)

## COc1ccc2[nH]c([S+]([O-])Cc3ncc(C)c(OC)c3C)nc2c1 (stereo not shown) [omeprazole, 5-methoxy-2-[[(4-methoxy-3,5-dimethyl-2-pyridinyl)methyl]-sulfinyl]-1H-benzimidazole]
  MIC: 0.39 µg/mL (≈ 1.13 µM)
